Measurements reported in patent US11691980B2, “Liphagal analog and multi-targeted kinase inhibitor containing liphagal or analog thereof” (TOHOKU UNIVERSITY, priority 2017, dated 2023).

How the values were obtained:
Type in all cases: biochemical
[1] = biological target: CDK4/CycD3 (Homo sapiens, UniProt P11802); assay: mobility shift assay
[2] = biological target: T1, MST3 (Homo sapiens, UniProt Q9Y6E0); assay: mobility shift assay
T1 construct: purchased Carna Biosciences

[3] = biological target: T2, DDR1 (Homo sapiens, UniProt Q08345); assay: mobility shift assay
T2 construct: purchased Carna Biosciences

[4] = biological target: T3, SPHK1 (Homo sapiens, UniProt Q9NYA1); assay: mobility shift assay
T3 construct: purchased Carna Biosciences

[5] = biological target: T4, CaMK4 (Homo sapiens, UniProt Q16566); assay: mobility shift assay
T4 construct: purchased Carna Biosciences

[6] = biological target: T5, BLK (Homo sapiens, UniProt P51451); assay: mobility shift assay
T5 construct: purchased Carna Biosciences

[7] = biological target: T6, PDGFRα(T674I) (Homo sapiens, UniProt P16234, T674I); assay: mobility shift assay
T6 construct: purchased Carna Biosciences

[8] = biological target: T7, HPK2 (Homo sapiens, UniProt Q9H2X6); assay: mobility shift assay
T7 construct: purchased Carna Biosciences

[9] = biological target: T8, GSK3β (Homo sapiens, UniProt P49841); assay: mobility shift assay
T8 construct: purchased Carna Biosciences

[10] = biological target: T9, GSK3α (Homo sapiens, UniProt P49840); assay: mobility shift assay
T9 construct: purchased Carna Biosciences
T9 sequence (P49840 whole entry): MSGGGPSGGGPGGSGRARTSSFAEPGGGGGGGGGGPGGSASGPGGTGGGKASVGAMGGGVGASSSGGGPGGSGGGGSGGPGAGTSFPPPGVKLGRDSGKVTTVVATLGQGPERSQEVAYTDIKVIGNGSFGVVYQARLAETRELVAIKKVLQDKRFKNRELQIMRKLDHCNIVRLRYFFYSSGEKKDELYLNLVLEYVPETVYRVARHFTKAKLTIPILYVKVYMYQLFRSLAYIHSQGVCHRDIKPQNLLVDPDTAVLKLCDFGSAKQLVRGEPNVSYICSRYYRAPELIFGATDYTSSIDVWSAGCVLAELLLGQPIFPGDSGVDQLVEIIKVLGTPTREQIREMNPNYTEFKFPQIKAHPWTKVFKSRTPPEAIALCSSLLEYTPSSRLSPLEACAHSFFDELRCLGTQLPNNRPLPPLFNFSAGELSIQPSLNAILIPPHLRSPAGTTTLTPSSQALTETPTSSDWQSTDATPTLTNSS

[11] = biological target: T10, EPHA6 (Homo sapiens, UniProt Q9UF33); assay: mobility shift assay
T10 construct: purchased Carna Biosciences

[12] = biological target: T11, PLK2 (Homo sapiens, UniProt Q9NYY3); assay: IMAP Assay
T11 construct: purchased Carna Biosciences

[13] = biological target: T12, RSK2 (Homo sapiens, UniProt P51812); assay: mobility shift assay
T12 construct: purchased Carna Biosciences

[14] = biological target: T13, DCAMKL2 (Homo sapiens, UniProt Q8N568); assay: mobility shift assay
T13 construct: purchased Carna Biosciences

[15] = biological target: T14, PKR (Homo sapiens, UniProt P19525); assay: IMAP Assay
T14 construct: purchased Carna Biosciences

[16] = biological target: T15, PEK (Homo sapiens, UniProt Q9NZJ5); assay: IMAP Assay
T15 construct: purchased Carna Biosciences

[17] = biological target: T16, SGK (Homo sapiens, UniProt O00141); assay: mobility shift assay
T16 construct: purchased Carna Biosciences

[18] = biological target: T17, DYRK1A (Homo sapiens, UniProt Q13627); assay: mobility shift assay
T17 construct: purchased Carna Biosciences

[19] = biological target: T18, SLK (Homo sapiens, UniProt Q9H2G2); assay: mobility shift assay
T18 construct: purchased Carna Biosciences

[20] = biological target: T19, M88K1 (Homo sapiens, UniProt Q9UPE1); assay: mobility shift assay
T19 construct: purchased Carna Biosciences
T19 sequence (Q9UPE1 whole entry): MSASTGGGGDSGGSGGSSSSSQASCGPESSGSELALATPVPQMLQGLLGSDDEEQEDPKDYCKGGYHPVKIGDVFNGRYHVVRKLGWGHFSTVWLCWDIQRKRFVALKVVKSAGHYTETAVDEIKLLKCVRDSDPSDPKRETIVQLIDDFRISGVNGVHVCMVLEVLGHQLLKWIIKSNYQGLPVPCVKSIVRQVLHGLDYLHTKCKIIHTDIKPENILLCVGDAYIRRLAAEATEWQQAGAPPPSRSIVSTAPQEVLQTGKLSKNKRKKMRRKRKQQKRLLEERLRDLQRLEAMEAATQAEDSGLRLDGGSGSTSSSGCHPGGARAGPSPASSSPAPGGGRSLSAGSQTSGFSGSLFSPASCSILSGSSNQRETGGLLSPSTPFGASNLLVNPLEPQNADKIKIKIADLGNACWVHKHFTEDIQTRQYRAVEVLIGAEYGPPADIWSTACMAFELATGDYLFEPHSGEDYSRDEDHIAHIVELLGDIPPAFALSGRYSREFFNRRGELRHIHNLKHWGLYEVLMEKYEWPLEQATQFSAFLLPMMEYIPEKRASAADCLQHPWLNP

[21] = biological target: T20, IGF1R (Homo sapiens, UniProt P08069); assay: mobility shift assay
T20 construct: purchased Carna Biosciences

[22] = biological target: T21, FGFR4(V550L) (Homo sapiens, UniProt P22455, V550L); assay: mobility shift assay
T21 construct: purchased Carna Biosciences

[23] = biological target: T22, LYNa (Homo sapiens, UniProt P07948); assay: mobility shift assay
T22 construct: purchased Carna Biosciences

[24] = biological target: T23, BMX (Homo sapiens, UniProt P51813); assay: mobility shift assay
T23 construct: purchased Carna Biosciences

[25] = biological target: T24, CLK3 (Homo sapiens, UniProt P49761); assay: mobility shift assay
T24 construct: purchased Carna Biosciences

[26] = biological target: T25, MET(Y1235D) (Homo sapiens, UniProt P08581, Y1235D); assay: mobility shift assay
T25 construct: purchased Carna Biosciences

[27] = biological target: T26, MAP4K2 (Homo sapiens, UniProt Q12851); assay: mobility shift assay
T26 construct: purchased Carna Biosciences

[28] = biological target: T27, EGFR(L858R) (Homo sapiens, UniProt P00533, L858R); assay: mobility shift assay
T27 construct: purchased Carna Biosciences

[29] = biological target: T28, NDR1 (Homo sapiens, UniProt Q15208); assay: mobility shift assay
T28 construct: purchased Carna Biosciences

[30] = biological target: T29, IKKβ (Homo sapiens, UniProt O14920); assay: mobility shift assay
T29 construct: purchased Carna Biosciences

[31] = biological target: T30, MER (Homo sapiens, UniProt Q12866); assay: mobility shift assay
T30 construct: purchased Carna Biosciences

[32] = biological target: T31, LTK (Homo sapiens, UniProt P29376); assay: mobility shift assay
T31 construct: purchased Carna Biosciences

[33] = biological target: T32, MAPKAPK2 (Homo sapiens, UniProt P49137); assay: mobility shift assay
T32 construct: purchased Carna Biosciences

[34] = biological target: T33, CaMK2α (Homo sapiens, UniProt Q9UQM7); assay: mobility shift assay
T33 construct: purchased Carna Biosciences

[35] = biological target: T34, MAP2K5 Cascade (Homo sapiens, UniProt Q13163); assay: mobility shift assay
T34 construct: purchased Carna Biosciences

[36] = biological target: T35, MGC42105 (Homo sapiens, UniProt Q8IY84); assay: mobility shift assay
T35 construct: purchased Carna Biosciences

[37] = biological target: T36, PKCγ (Homo sapiens, UniProt P05129); assay: mobility shift assay
T36 construct: purchased Carna Biosciences

[38] = biological target: T37, MRCKβ (Homo sapiens, UniProt Q9Y5S2); assay: mobility shift assay
T37 construct: purchased Carna Biosciences

[39] = biological target: T38, AXL (Homo sapiens, UniProt P30530); assay: mobility shift assay
T38 construct: purchased Carna Biosciences
T38 sequence (P30530 26-894): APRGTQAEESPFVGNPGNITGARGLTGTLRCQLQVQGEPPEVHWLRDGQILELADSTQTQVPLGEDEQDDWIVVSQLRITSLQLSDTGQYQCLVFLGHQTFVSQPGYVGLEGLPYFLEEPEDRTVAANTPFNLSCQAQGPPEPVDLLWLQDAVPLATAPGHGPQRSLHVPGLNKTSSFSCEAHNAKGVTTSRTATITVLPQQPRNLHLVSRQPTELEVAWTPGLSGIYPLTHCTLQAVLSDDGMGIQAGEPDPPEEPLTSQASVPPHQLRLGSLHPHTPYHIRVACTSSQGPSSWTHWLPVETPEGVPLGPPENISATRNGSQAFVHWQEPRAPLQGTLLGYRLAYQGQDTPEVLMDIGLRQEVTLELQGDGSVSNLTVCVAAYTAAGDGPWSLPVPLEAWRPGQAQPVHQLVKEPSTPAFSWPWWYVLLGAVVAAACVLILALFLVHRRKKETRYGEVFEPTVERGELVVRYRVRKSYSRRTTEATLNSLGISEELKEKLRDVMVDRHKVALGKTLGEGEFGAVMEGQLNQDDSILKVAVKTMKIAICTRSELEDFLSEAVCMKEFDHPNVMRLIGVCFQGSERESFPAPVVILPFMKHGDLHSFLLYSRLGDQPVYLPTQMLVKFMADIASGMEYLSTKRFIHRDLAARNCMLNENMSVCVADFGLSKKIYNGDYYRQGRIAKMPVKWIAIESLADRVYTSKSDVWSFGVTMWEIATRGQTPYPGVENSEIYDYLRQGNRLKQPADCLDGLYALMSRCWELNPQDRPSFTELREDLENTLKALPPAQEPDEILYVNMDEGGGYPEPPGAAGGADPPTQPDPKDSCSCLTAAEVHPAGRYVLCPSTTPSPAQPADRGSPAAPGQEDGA

[40] = biological target: T39, PKCβ1 (Homo sapiens, UniProt P05771); assay: mobility shift assay
T39 construct: purchased Carna Biosciences
T39 sequence (P05771 whole entry): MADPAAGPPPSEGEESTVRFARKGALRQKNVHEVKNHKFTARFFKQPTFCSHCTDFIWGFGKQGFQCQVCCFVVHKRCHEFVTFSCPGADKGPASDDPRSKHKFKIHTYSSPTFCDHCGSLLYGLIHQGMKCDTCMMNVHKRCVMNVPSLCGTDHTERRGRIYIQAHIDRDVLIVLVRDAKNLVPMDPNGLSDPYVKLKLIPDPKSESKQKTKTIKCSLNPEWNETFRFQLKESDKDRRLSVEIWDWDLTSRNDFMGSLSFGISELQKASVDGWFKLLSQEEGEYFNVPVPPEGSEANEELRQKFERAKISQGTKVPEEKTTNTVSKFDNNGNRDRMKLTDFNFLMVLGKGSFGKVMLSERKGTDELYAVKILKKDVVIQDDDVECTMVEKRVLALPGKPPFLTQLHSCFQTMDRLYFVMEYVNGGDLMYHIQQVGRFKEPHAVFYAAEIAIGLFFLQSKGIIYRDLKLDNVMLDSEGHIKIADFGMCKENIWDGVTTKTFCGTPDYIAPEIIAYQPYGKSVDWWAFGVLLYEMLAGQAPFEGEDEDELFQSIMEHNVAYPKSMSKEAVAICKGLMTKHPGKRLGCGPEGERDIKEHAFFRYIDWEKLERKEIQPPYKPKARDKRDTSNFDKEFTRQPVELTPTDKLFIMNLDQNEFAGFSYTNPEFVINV

[41] = biological target: CDK7/CycHMAT1 (Homo sapiens, UniProt P50613); assay: mobility shift assay; parameters: purchased Carna Biosciences
CDK7/CycHMAT1, sequence (P50613 whole entry): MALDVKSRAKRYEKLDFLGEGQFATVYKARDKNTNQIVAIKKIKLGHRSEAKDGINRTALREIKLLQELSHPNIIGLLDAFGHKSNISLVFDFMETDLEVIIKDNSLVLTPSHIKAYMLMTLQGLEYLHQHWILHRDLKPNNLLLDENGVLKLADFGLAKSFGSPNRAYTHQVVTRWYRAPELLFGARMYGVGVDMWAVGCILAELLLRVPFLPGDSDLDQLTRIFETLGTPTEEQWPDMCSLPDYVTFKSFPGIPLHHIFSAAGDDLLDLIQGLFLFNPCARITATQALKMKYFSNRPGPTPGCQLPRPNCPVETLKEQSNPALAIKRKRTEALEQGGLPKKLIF
CDK7/CycHMAT1, sequence (P51946 whole entry partner): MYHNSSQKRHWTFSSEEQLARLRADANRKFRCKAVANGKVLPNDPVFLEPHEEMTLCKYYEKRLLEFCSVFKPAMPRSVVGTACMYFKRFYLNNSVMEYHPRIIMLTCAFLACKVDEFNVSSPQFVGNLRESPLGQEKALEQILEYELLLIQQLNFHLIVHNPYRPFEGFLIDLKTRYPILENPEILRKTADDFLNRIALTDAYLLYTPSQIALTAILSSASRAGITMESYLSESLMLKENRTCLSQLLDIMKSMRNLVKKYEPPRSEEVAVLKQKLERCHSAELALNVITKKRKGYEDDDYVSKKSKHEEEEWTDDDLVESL
CDK7/CycHMAT1, sequence (P51948 whole entry partner): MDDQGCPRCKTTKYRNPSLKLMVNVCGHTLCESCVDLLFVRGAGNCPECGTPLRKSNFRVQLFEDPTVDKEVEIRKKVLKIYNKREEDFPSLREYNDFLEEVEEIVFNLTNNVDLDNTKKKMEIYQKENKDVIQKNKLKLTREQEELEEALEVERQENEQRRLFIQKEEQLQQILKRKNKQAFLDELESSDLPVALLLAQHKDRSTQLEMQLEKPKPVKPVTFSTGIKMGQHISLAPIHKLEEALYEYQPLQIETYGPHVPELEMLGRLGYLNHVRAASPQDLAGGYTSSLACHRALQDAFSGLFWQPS

CDK4/CycD3, sequence (P11802 whole entry): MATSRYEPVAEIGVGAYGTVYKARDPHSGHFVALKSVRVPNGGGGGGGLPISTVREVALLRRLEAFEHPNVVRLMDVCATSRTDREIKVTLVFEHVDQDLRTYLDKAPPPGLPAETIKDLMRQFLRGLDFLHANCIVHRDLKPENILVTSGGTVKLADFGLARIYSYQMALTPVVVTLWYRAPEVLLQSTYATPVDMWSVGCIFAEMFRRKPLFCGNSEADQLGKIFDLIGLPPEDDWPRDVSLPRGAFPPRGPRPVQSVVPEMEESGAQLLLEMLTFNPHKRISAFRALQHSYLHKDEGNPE
CDK4/CycD3, sequence (P30281 whole entry partner): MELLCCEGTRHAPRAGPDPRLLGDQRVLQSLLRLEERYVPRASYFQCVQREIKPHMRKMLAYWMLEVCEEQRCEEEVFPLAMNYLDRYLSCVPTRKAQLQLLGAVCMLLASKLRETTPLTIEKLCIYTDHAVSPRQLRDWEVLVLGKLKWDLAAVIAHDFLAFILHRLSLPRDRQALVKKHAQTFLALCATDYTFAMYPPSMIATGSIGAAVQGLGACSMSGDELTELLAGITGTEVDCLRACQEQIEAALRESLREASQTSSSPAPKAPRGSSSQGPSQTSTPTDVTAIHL

C[C@@H]1CC[C@H]2C(C)(C)CCC[C@]2(C)c2c1oc1c(C=O)c(O)c(O)cc21 [LG-1, liphagal]
inhibition at 10 µM ([1]; CDK4/CycD3): 63.4% | inhibitory activity against CDK4 ([1]; in words, 10 μM): Potent inhibitory activity | inhibition at 10 µM [2]: 62.7% | inhibition at 10 µM [3]: 60.5% | inhibition at 10 µM [4]: 59.8% | inhibition at 10 µM [5]: 51.4% | inhibition at 10 µM [6]: 29.4% | inhibition at 10 µM [7]: 29.2% | inhibition at 10 µM [8]: 27% | inhibition at 10 µM [9]: 25.3% | inhibition at 10 µM [10]: 23.1% | inhibition at 10 µM [11]: 23% | inhibition at 10 µM [12]: 19.7% | inhibition at 10 µM [13]: 14.5% | inhibition at 10 µM [14]: 14% | inhibition at 10 µM [15]: 13.8% | inhibition at 10 µM [16]: 13.2% | inhibition at 10 µM [17]: 12.4% | inhibition at 10 µM [18]: 10.5% | inhibition at 10 µM [19]: 10.5% | inhibition at 10 µM [20]: 9.3% | inhibition at 10 µM [21]: 8.7% | inhibition at 10 µM [22]: 7.8% | inhibition at 10 µM [23]: 7.6% | inhibition at 10 µM [24]: 6.5% | inhibition at 10 µM [25]: 5.7% | inhibition at 10 µM [26]: 5% | inhibition at 10 µM [27]: 5% | inhibition at 10 µM [28]: 4.2% | inhibition at 10 µM [29]: 2.6% | inhibition at 10 µM [30]: 2.4% | inhibition at 10 µM [31]: 2.1% | inhibition at 10 µM [32]: 1.8% | inhibition at 10 µM [33]: 0.5% | inhibition at 10 µM [34]: -0.5% | inhibition at 10 µM [35]: -1.3% | inhibition at 10 µM [36]: -1.7% | inhibition at 10 µM [37]: -1.9% | inhibition at 10 µM [38]: -1.9% | inhibition at 10 µM [39]: -4.2% | inhibition at 10 µM [40]: -18% | inhibition at 10 µM ([41]; CDK7/CycHMAT1): 85.8% | inhibitory activity against CDK7 ([41]; in words, 10 μM): Potent inhibitory activity
